Laboratory results published in patent publication US7622481B2, “Antibacterial compounds” (priority 2003, dated 2009).
Where a name gives a salt, the structure may show the parent alone. Read-outs that look alike come from different tables or passages of the source.

Assay: MIC of test compounds against various organisms
Format: cell-based
Experimental: The MIC (μg/ml) of test compounds against various organisms was determined including:
S. epidermidis CL7, S. aureus WCUH29, S. pneumoniae 1629, S. pyogenes CN10, H. influenzae ATCC 49247, E. faecalis 2, M. catarrhalis Ravasio, E. coli 7623.

[1] = versus all these organisms (panel of 8 strains), read-out: MIC
[2] = versus at least one of these organisms (panel of 8 strains), read-out: MIC

Compound: N#Cc1ccc2cccc(NC(=O)[C@]3(O)CC[C@@H](NCc4ccc5c(n4)NC(=O)CS5)CC3)c2n1 [Example 10, 1-Hydroxy-t-4-[(3-oxo-3,4-dihydro-2H-pyrido[3,2-b][1,4]thiazin-6-ylmethyl)-amino]-r-cyclohexanecarboxylic acid (2-cyano-quinolin-8-yl)-amide dihydrochloride]
- MIC [1]: ≤ 2 µg/mL

Compound: O=C1COc2ccc(CN[C@H]3CC[C@](O)(C(=O)Nc4ccnc5ccncc45)CC3)nc2N1 [Example 29, 1-Hydroxy-t-4-[(3-oxo-3,4-dihydro-2H-pyrido[3,2-b][1,4]oxazin-6-ylmethyl)-amino]-r-cyclohexanecarboxylic acid [1,6]naphthyridin-4-ylamide]
- MIC (versus some of these organisms (panel of 8 strains), read-out: MIC): ≤ 2 µg/mL

Compound: COc1ccc2cccc(CC[C@]3(O)CC[C@@H](NCc4ccc5c(n4)NC(=O)CO5)CC3)c2n1 [Example 7, 6-({4-Hydroxy-4-[2-(2-methoxy-quinolin-8-yl)-ethyl]-cyclohexylamino}-methyl)-4H-pyrido[3,2-b][1,4]oxazin-3-one]
- MIC [1]: ≤ 2 µg/mL

Compound: N#Cc1ccc2cccc(NC(=O)[C@]3(O)CC[C@@H](NCc4cc5c(cn4)OCCO5)CC3)c2n1 [Example 38, t-4-[(2,3-Dihydro-[1,4]dioxino[2,3-c]pyridin-7-ylmethyl)-amino]-1-hydroxy-r-cyclohexanecarboxylic acid (2-cyano-quinolin-8-yl)-amide hydrochloride]
- MIC [1]: ≤ 2 µg/mL

Compound: N#Cc1ccc2cccc(NC(=O)[C@@H]3CC[C@@H](NCc4cc5c(cn4)OCCO5)[C@@H](O)C3)c2n1 [Example 37, (1R,3S,4R)-4-[(2,3-Dihydro-[1,4]dioxino[2,3-c]pyridin-7-ylmethyl)-amino]-3-hydroxy-cyclohexanecarboxylic acid (2-cyano-quinolin-8-yl)-amide hydrochloride]
- MIC: ≤ 2 µg/mL

Compound: COc1cccc2nccc(NC(=O)[C@]3(O)CC[C@@H](NCc4ccc5c(n4)NC(=O)CS5)CC3)c12 [Example 28, 1-Hydroxy-t-4-[(3-oxo-3,4-dihydro-2H-pyrido[3,2-b][1,4]thiazin-6-ylmethyl)-amino]-r-cyclohexanecarboxylic acid (5-methoxy-quinolin-4-yl)-amide dihydrochloride]
- MIC [1]: ≤ 8 µg/mL

Compound: N#Cc1ccc2nccc(NC(=O)[C@]3(O)CC[C@@H](NCc4ccc5c(n4)NC(=O)CS5)CC3)c2c1 [Example 40, 1-Hydroxy-t-4-[(3-oxo-3,4-dihydro-2H-pyrido[3,2-b][1,4]thiazin-6-ylmethyl)-amino]-r-cyclohexanecarboxylic acid (6-cyano-quinolin-4-yl)-amide dihydrochloride]
- MIC [1]: ≤ 2 µg/mL

Compound: O=C1CSc2ccc(CN[C@H]3CC[C@H](C(=O)Nc4ccnc5ccccc45)CC3)nc2N1 [Example 3, trans-4-[(3-Oxo-3,4-dihydro-2H-pyrido[3,2-b][1,4]thiazin-6-ylmethyl)-amino]-cyclohexanecarboxylic acid quinolin-4-ylamide dihydrochloride]
- MIC: ≤ 8 µg/mL

Compound: Cn1ccc2cccc(NC(=O)[C@]3(O)CC[C@@H](NCc4ccc5c(n4)NC(=O)CS5)CC3)c2c1=O [Example 26, 1-Hydroxy-t-4-[(3-oxo-3,4-dihydro-2H-pyrido[3,2-b][1,4]thiazin-6-ylmethyl)-amino]-r-cyclohexanecarboxylic acid (2-methyl-1-oxo-1,2-dihydro-isoquinolin-8-yl)-amide hydrochloride]
- MIC [1]: ≤ 2 µg/mL

Compound: COc1ccc2cccc(NC(=O)[C@]3(O)CC[C@@H](NCc4ccc5c(n4)NC(=O)CS5)CC3)c2n1 [Example 5, 1-Hydroxy-t-4-[(3-oxo-3,4-dihydro-2H-pyrido[3,2-b][1,4]thiazin-6-ylmethyl)-amino]-r-cyclohexanecarboxylic acid (2-methoxy-quinolin-8-yl)-amide]
- MIC [1]: ≤ 2 µg/mL

Compound: Cc1ccc2cccc(NC(=O)[C@]3(O)CC[C@@H](NCc4ccc5c(n4)NC(=O)CO5)CC3)c2n1 [Example 18, 1-Hydroxy-t-4-[(3-oxo-3,4-dihydro-2H-pyrido[3,2-b][1,4]oxazin-6-ylmethyl)-amino]-r-cyclohexanecarboxylic acid (2-methyl-quinolin-8-yl)-amide dihydrochloride]
- MIC [1]: ≤ 2 µg/mL

Compound: O=C1CSc2ccc(CN[C@H]3CC[C@](O)(C(=O)Nc4ccnc5c4OCCO5)CC3)nc2N1 [Example 2, 1-Hydroxy-t-4-[(3-oxo-3,4-dihydro-2H-pyrido[3,2-b][1,4]thiazin-6-ylmethyl)-amino]-r-cyclohexanecarboxylic acid (2,3-dibydro-[1,4]dioxino[2,3-b]pyridin-8-yl)-amide dihydrochloride]
- MIC [2]: ≤ 16 µg/mL

Compound: COc1ccc2nccc(NC(=O)[C@@H]3CC[C@@H](NCc4nc5c(cc4F)SCC(=O)N5)[C@@H](F)C3)c2n1 [Example 32, (1R,3S,4R)-3-Fluoro-4[(7-fluoro-3-oxo-3,4-dihydro-2H-pyrido[3,2-b][1,4]thiazin-6-ylmethyl)-amino]-cyclohexanecarboxylic acid (6-methoxy-[1,5]naphthyridin-4-yl)-amide dihydrochloride]
- MIC: ≤ 2 µg/mL

Compound: COc1ccc2cccc(NC(=O)[C@]3(O)CC[C@@H](NCc4nc5c(cc4F)SCC(=O)N5)CC3)c2n1 [Example 23, t-4-[(7-Fluoro-3-oxo-3,4-dihydro-2H-pyrido[3,2-b][1,4]thiazin-6-ylmethyl)-amino]-1-hydroxy-r-cyclohexanecarboxylic acid (2-methoxy-quinolin-8-yl)-amide dihydrochloride]
- MIC [1]: ≤ 8 µg/mL

Compound: Cc1cnc2c(NC(=O)[C@]3(O)CC[C@@H](NCc4ccc5c(n4)NC(=O)CS5)CC3)cccc2n1 [Example 30, 1-Hydroxy-t-4-[(3-oxo-3,4-dihydro-2H-pyrido[3,2-b][1,4]thiazin-6-ylmethyl)-amino]-r-cyclohexanecarboxylic acid (2-methyl-quinoxalin-5-yl)-amide dihydrochloride]
- MIC [2]: ≤ 16 µg/mL

Compound: COc1ccc2nccc(NC(=O)[C@@H]3CC[C@@H](NCc4ccc5c(n4)NC(=O)CO5)[C@@H](F)C3)c2n1 [Example 31, (1R,3S,4R)-3-Fluoro-4-[(3-oxo-3,4-dihydro-2H-pyrido[3,2-b][1,4]oxazin-6-ylmethyl)-amino]-cyclohexanecarboxylic acid (6-methoxy-[1,5]naphthyridin-4-yl)-amide dihydrochloride]
- MIC: ≤ 2 µg/mL

Compound: N#Cc1ccc2cccc(NC(=O)[C@]3(O)CC[C@@H](NCc4ccc5c(n4)NC(=O)CO5)CC3)c2n1 [Example 11, 1-Hydroxy-t-4-[(3-oxo-3,4-dihydro-2H-pyrido[3,2-b][1,4]oxazin-6-ylmethyl)-amino]-r-cyclohexanecarboxylic acid (2-cyano-quinolin-8-yl)-amide hydrochloride]
- MIC [1]: ≤ 2 µg/mL

Compound: N#Cc1ccc2cccc(NC(=O)[C@@H]3CC[C@@H](NCc4ccc5c(n4)NC(=O)CS5)[C@@H](O)C3)c2n1 [Example 16, (1R,3S,4R)-3-Hydroxy-4-[(3-oxo-3,4-dihydro-2H-pyrido[3,2-b][1,4]thiazin-6-ylmethyl)-amino]-cyclohexanecarboxylic acid (2-cyano-quinolin-8-yl)-amide hydrochloride]
- MIC [1]: ≤ 2 µg/mL

Compound: N#Cc1ccc2cccc(NC(=O)[C@@H]3CC[C@@H](NCc4ccc5c(n4)NC(=O)CO5)[C@@H](O)C3)c2n1 [Example 9, (1R,3S,4R)-3-Hydroxy-4-[(3-oxo-3,4-dihydro-2H-pyrido[3,2-b][1,4]oxazin-6-ylmethyl)-amino]-cyclohexanecarboxylic acid (2-cyano-quinolin-8-yl)-amide hydrochloride]
- MIC [1]: ≤ 2 µg/mL

Compound: Cc1cnc2cccc(NC(=O)[C@]3(O)CC[C@@H](NCc4ccc5c(n4)NC(=O)CS5)CC3)c2n1 [Example 25, 1-Hydroxy-t-4-[(3-oxo-3,4-dihydro-2H-pyrido[3,2-b][1,4]thiazin-6-ylmethyl)-amino]-r-cyclohexanecarboxylic acid (3-methyl-quinoxalin-5-yl)-amide dihydrochloride]
- MIC [1]: ≤ 2 µg/mL

Compound: COc1ccc2cccc(NC(=O)[C@]3(O)CC[C@@H](NCc4ccc5c(n4)NC(=O)CO5)CC3)c2n1 [Example 17, 1-Hydroxy-t-4-[(3-oxo-3,4-dihydro-2H-pyrido[3,2-b][1,4]oxazin-6 ylmethyl)-amino]-r-cyclohexanecarboxylic acid (2-methoxy-quinolin-8-yl)-amide]
- MIC [1]: ≤ 2 µg/mL

Compound: Cc1ccc2cccc(NC(=O)[C@]3(O)CC[C@@H](NCc4cc5c(cn4)OCCO5)CC3)c2n1 [Example 35, t-4-[(2,3-Dihydro-[1,4]dioxino[2,3-c]pyridin-7-ylmethyl)-amino]-1-hydroxy-c-cyclohexanecarboxylic acid (2-methyl-quinolin-8-yl)-amide dihydrochloride]
- MIC [1]: ≤ 8 µg/mL

Compound: COc1ccc2cccc(NC(=O)[C@@H]3CC[C@@H](NCc4ccc5c(n4)NC(=O)CS5)[C@H](O)C3)c2n1 [Example 20, (1R,3R,4R)-3-Hydroxy-4-[(3-oxo-3,4-dihydro-2H-pyrido[3,2-b)[1,4]thiazin-6-ylmethyl)-amino]-cyclohexanecarboxylic acid (2-methoxy-quinolin-8-yl)-amide dihydrochloride]
- MIC [1]: ≤ 2 µg/mL

Compound: N#Cc1ccc2cccc(NC(=O)[C@H]3CC[C@H](NCc4ccc5c(n4)NC(=O)CO5)[C@H](O)C3)c2n1 [Example 13, (1S,3R,4S)-3-Hydroxy-4-[(3-oxo-3,4-dihydro-2H-pyrido[3,2-b][1,4]oxazin-6-ylmethyl)-amino]-cyclohexanecarboxylic acid (2-cyano-quinolin-8-yl)-amide hydrochloride]
- MIC [1]: ≤ 2 µg/mL

Compound: O=C1CSc2ccc(CN[C@H]3CC[C@](O)(C(=O)Nc4ccnc5ccsc45)CC3)nc2N1 [Example 1, 1 -Hydroxy-t-4-[(3-oxo-3,4-dihydro-2H-pyrido[3,2-b][1 ,4]thiazin-6-ylmethyl) -amino]-r-cyclohexanecarboxylic acid thieno[3,2-b]pyridin-7-ylamide dihydrochioride]
- MIC [1]: ≤ 8 µg/mL

Compound: COc1ccc2cccc(NC(=O)[C@]3(O)CC[C@@H](NCc4ccc5c(n4)NCCS5)CC3)c2n1 [Example 6, 4-[(3,4-Dihydro-2H-pyrido[3,2-b][1,4]thiazin-6-ylmethyl)-amino]-1-hydroxy-cyclohexanecarboxylic acid (2-methoxy-quinolin-8-yl)-amide]
- MIC [1]: ≤ 8 µg/mL
